These results are taken from patent US20130011376A1, “Methods for Enhancing Natural Killer Cell Proliferation and Activity” (GAMIDA CELL LTD., priority 2009, published 2013).

Assay [1] concerns unselected cord blood mononuclear cell population. Nature of the assay: Lymphocyte subsets (FACS) in unselected cord blood mononuclear cell cultures. Type of assay: cell-based, human. Particulars: three weeks. On the procedure: 1. Total mononuclear cell fraction was cultured in culture bags (American Fluoroseal Co. Gaithersburg, Md., USA), T-Flasks or 24 well plates at a concentration of 0.5−2×10^6 cells/ml in MEMα comprising 10% FCS or CellGro SCGM (Cell Genix) comprising 5-10% Human Serum/LiforCell® FBS Replacement (Lifeblood Products) containing the following human recombinant cytokines:, interleukin-2 (IL-2) (5-50 ng/ml), interleukin-15 (IL-15), interleukin7 (IL7), interleukin 21 (IL21), FLT-3 or SCF or FLT3 and SCF (Perpo Tech, Inc., Rocky Hill, N.J., USA), with or without OKT-3 (10-50 ng/ml), with or without nicotinamide (0.5-10 mM), and incubated at 37° C. in a humidified atmosphere of 5% CO2 in air. When OKT-3 was used in the culture the cultures were centrifuged after 5-7 days and the cells were resuspended with the same medium excluding the OKT-3. All cultures are topped weekly or twice a week with the same volume of fresh medium containing the growth factors with or without nicotinamide. For counting, the cells were stained with trypan blue. At various time points, samples were taken to assay the relative fractions of NK cells, CD56+CD3−, CD56+CD3+, CD34+CD56+, CD56+CD16+ and/or CD56+ NKG2A cells. Cell morphology was determined on cytospin (Shandon, Pittsburgh, Pa., USA) prepared smears stained with May-Grunwald/Giemsa solutions.
The cells were washed with a PBS solution containing 1% BSA, and stained (at 4° C. for 30 min) with fluorescein isothiocyanate (FITC)- or phycoerythrin (PE)-conjugated antibodies or allophycocyanin (APC). The cells were then washed in the above buffer and analyzed using a FACScalibur® flow cytometer (Becton Dickinson, San Jose, Calif., USA). The cells were passed at a rate of up to 1000 cells/second, using a 488 nm or 661 nm argon laser beam as the light source for excitation. Emission of 10^4 cells was measured using logarithmic amplification, and analyzed using the CellQuest software (Becton Dickinson). Cells stained with FITC, PE and APC-conjugated isotype control antibodies were used to determine background fluorescence. […]

Assay [2] deals with monocyte (CD14+) and granulocyte (CD15+) cells. The assay can be described thus: Contaminating monocytes and granulocytes in NK cell cultures (FACS). Particulars: 14 days culture. Type of assay: cell-based, human. Here is the method:
For depletion procedure, total nuclear cells from umbilical cord blood (CB), bone marrow (BM) or peripheral blood (PB) cells were layered on a Ficoll-Hypaque gradient (1.077 g/mL; Sigma), and centrifuged at 800×g for 30 minutes for separation of the mononuclear cells. The cells in the interface layer were collected and washed three times in phosphate-buffered saline (PBS) (Biological Industries, Israel) containing 0.5% HSA. Optionally, cells are not separated on the Ficoll-Hypaque gradient but washed three times in phosphate-buffered saline (PBS) (Biological Industries) containing 0.5% HSA (“total mononuclear fraction”). CD3 cells were depleted using the CD3 cell isolation kit (Miltenyi Biotec Bergisch, Gladbach, Germany) and the entire CD3 negative cell fraction was cultured. […] After negative depletion the cells were counted and characterized by FACS analysis.
3. […] To estimate number of cells in culture, cell samples were counted following staining with trypan blue. […]
Methods for expansion of NK cells in culture, for use in the clinical setting, must be somewhat specific for the NK cell population, lest contaminating non-NK cells also proliferate due to cell culture conditions. The effect of nicotinamide on non-NK cells was evaluated by monitoring monocyte and granulocyte populations in NK cell cultures exposed to 2.5, 5 and 7.5 mM nicotinamide.

The mark [3] stands for this setting: 0.5, 1, 2.5 and 5 mM nicotinamide.

Turning to `NC(=O)c1cccnc1` [nicotinamide], in assay [1] (setting [3]), the “proliferation in culture of CD56+/CD3- NK cells” value is given as “dose-dependent nicotinamide-induced enhancement of proliferation” and the “proliferation in culture of CD56+/CD45+ cells” value was “dose-dependent nicotinamide-induced enhancement of proliferation”. Further, in assay [1] (0.5 to 5 mM nicotinamide, dose-dependent), the “CD3+ CD56- T cell growth” value is “inhibition”. Besides, in assay [2], the “suppression of CD14 proliferation” value is reported as “greater than 50%” and the “suppression of granulocyte proliferation” value was “greater than 50%”.
